Data taken from ChEMBL document CHEMBL2203135, “Novel progesterone receptor modulators: 4-aryl-phenylsulfonamides” (Bioorg Med Chem Lett, 2012).

Legend:
Plasma = experiment: Average drug concentration in ovariectomized rhesus monkey plasma at 5 mg/kg/day, po; format: ADME, organism-based, Macaca mulatta; parameters: route oral; settings: in vivo
[1] = AUC (0 to last) in in ovariectomized rhesus monkey at 5 mg/kg/day, po; format: ADME, organism-based, Macaca mulatta; parameters: dose 5 mg/kg/day, time 0 - last, route oral; settings: female, plasma
[2] = Cmax in rat at 2 mg/kg, po; format: ADME, organism-based; parameters: dose 2 mg/kg, route oral; settings: in vivo
[3] = AUC (0 to infinity) in rat at 2 mg/kg, iv; format: ADME, organism-based; parameters: time infinity, dose 2 mg/kg, route intravenous; settings: plasma
[4] = Half life in rat at 2 mg/kg, iv; format: ADME, organism-based; parameters: dose 2 mg/kg, route intravenous; settings: in vivo
[5] = Volume of distribution at steady state in rat at 2 mg/kg, iv; format: ADME, organism-based; parameters: dose 2 mg/kg, route intravenous; settings: in vivo, read-out: Vdss
[6] = Clearance in rat at 2 mg/kg, iv; format: ADME, organism-based; parameters: dose 2 mg/kg, route intravenous; settings: in vivo
[7] = AUC (0 to infinity) in cynomolgus monkey at 2 mg/kg, po; format: ADME, organism-based, Macaca fascicularis; parameters: time infinity, dose 2 mg/kg, route oral; settings: plasma
[8] = Half life in cynomolgus monkey at 2 mg/kg, po; format: ADME, organism-based, Macaca fascicularis; parameters: dose 2 mg/kg, route oral; settings: in vivo
[9] = target: T1, Mineralocorticoid receptor (Homo sapiens) (UniProt P08235); experiment: Antagonist activity at mineralocorticoid receptor at 1 uM by cellular reporter gene assay; format: functional; parameters: scale not given: the % may be the effect or the level left
T1 sequence (whole entry): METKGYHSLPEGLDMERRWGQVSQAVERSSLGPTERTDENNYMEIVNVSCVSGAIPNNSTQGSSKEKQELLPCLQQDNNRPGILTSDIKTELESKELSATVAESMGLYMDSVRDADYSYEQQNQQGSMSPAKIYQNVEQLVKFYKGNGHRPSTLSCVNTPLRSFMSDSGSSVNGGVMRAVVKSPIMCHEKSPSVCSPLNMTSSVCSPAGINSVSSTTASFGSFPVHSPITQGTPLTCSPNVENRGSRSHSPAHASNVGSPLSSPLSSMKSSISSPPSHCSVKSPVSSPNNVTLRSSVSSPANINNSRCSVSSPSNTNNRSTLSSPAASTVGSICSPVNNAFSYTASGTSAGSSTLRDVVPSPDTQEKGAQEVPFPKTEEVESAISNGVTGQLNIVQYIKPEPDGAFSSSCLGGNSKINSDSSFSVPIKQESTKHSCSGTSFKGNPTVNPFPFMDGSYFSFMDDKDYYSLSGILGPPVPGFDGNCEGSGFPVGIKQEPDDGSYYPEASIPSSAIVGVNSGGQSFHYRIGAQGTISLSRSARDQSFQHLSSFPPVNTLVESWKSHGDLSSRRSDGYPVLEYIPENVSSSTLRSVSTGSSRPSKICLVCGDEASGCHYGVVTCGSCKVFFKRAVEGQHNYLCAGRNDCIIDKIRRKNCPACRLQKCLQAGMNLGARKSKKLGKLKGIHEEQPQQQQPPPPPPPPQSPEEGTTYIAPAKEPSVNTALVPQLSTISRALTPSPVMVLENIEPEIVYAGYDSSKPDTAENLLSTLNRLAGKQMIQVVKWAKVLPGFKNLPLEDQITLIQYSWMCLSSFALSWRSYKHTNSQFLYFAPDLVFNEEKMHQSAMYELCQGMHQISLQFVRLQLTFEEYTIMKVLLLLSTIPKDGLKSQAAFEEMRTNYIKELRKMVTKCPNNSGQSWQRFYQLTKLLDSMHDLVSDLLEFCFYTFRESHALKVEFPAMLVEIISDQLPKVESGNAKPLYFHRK

[10] = Half life in cynomolgus monkey at 2 mg/kg, iv; format: ADME, organism-based, Macaca fascicularis; parameters: dose 2 mg/kg, route intravenous; settings: in vivo

Structure (SMILES): CCS(=O)(=O)Nc1cc(F)c(-c2ccc(C#N)n2C)c(F)c1
- Cave (Plasma): 3.6 µM
- AUC(0-t) [1]: 28500 ng·h/mL
- Cmax [2]: 2800 ng/mL
- AUC(0-inf) [3]: 13000 ng·h/mL
- half-life [4]: 2 h
- Vd [5]: 0.5 L/kg
- clearance [6]: 2.6 mL/min/kg
- AUC(0-inf) [7]: 13700 ng·h/mL
- half-life [8]: 2.7 h
- Activity [9]: 60%
- half-life [10]: 2.8 h
